Results published in article PMC9950431, “A bivalent remipede toxin promotes calcium release via ryanodine receptor activation” (Nature Communications, 2023).
No end group written: not given here.

Tests used:
RyR1 [1] = target: T1, RyR1 (Oryctolagus cuniculus, UniProt P11716); test: Single channel electrophysiology of RyR1 channels inserted into lipid bilayers (exposure to peptide); format: biochemical, New Zealand white rabbit (skeletal SR); conditions: +40 mV
T1 construct: skeletal SR vesicles were isolated from the back and leg muscles of mature female New Zealand white rabbits; from tissue; host or cells: rabbit back and leg skeletal muscle, sarcoplasmic reticulum vesicles
Procedure: Cardiac SR was prepared from mature female crossbred sheep hearts, and skeletal SR vesicles were isolated from the back and leg muscles of mature female New Zealand white rabbits[29],[54] with approval from the ANU Animal Experiment Ethics Committee Protocol Number A2015/35. […] Solutions for vesicle incorporation contained (mM): cis 230 caesium methanesulfonate (CsMS); 20 CsCl; 1 CaCl2 and 10 […] (TES) pH 7.4 and trans 30 CsMS; 20 CsCl; 1 CaCl2 10 TES; pH 7.4. […] Following incorporation, 200 mM CsMS was added to the trans solution and the cis solution exchanged with recording solution containing (mM): 230 CsMS; 20 CsCl; 0.001 CaCl2;10 TES and pH 7.4, with [Ca^2+] set by a [BAPTA] determined using a Ca^2+ electrode. The cytoplasmic and luminal solutions contained 1 μM and 1 mM Ca^2+ respectively, with symmetrical 250/250 mM CsMS. Bilayer voltage was switched between +40 mV and −40 mV (cytoplasmic voltage relative to grounded luminal solution) every 30 s. The activity of the RyR channels used here included 1 µM Ca^2+ in the cytoplasmic solution and 1 mM Ca^2+ in the luminal solution[29],[55]. Electrophysiology experiments were analysed using Channel 2 (P.W. Gage, M. Smith, Australian National University) and Channel 3 (N.W. Laver, University of Newcastle, Australia) software, available from the authors upon request. Statistical analyses were performed using Microsoft Excel (Office 365). […] Following most incorporation events, a single channel only was active in the bilayer and channel open probability (Po), mean open time (To), mean closed time (Tc) and open event frequency (Fo) were measured. When 2–4 channels were active in a bilayer, PO was approximated from the fractional mean current (I’F), i.e., mean current divided by maximum current. I’F is equal to PO in a single channel and indicates the average PO of multiple channels in a bilayer. […] Experiments at UN also included a minority of multi-channel experiments. The bilayer rigs, solution composition, source of channels, data acquisition and analyses methods were all identical.
Statistical analysis of single channel data was performed using Excel spreadsheets and embedded Students t-test functions or a sign test as indicated in the graphs in Figs. 1 and 3.

RyR1 [2] = target: T1, RyR1; conditions: cited from earlier work
Procedure: Electrophysiology experiments were carried out to determine the potency of each peptide. […] It is known that the activity of I ...

ryanodine receptor = target: T2, ryanodine receptor (Oryctolagus cuniculus, UniProt P11716); test: Single channel recording, exposure to peptide (sheet "Supp Fig 11"; RyR isoform not given); format: biochemical; conditions: IpTxA; combined average 100pM, 1nM and 5nM; 7 listed values; sem 0.460531; t-test 3.72E-02; control = 1
T2 construct: skeletal SR vesicles were isolated from the back and leg muscles of mature female New Zealand white rabbits; from tissue; host or cells: rabbit back and leg skeletal muscle, sarcoplasmic reticulum vesicles
Text: Supplement 41467_2023_36579_MOESM6_ESM.xlsx, sheet "Supp Fig 11" | column: mean Tc; mean To; mean Po; rel Tc; rel To; rel Po

[3] = system: sarcoplasmic reticulum (SR) in mouse extensor digitorum longus (EDL) fibers; test: SR Ca2+ leak in mechanically-skinned EDL muscle fibers (total SR Ca2+ content, [CaT]SR, after 1 min leak); format: cell-based, mouse (C57/Bl6)
Text: All experiments were approved by The University of Queensland Animal Ethics Committees. Male and female C57/Bl6 2–6-month-old mice were sacrificed by asphyxiation via CO2 exposure and the EDL muscles were rapidly excised. The EDL was pinned at resting length in a petri dish lined with Sylgard 184 (Dow Corning, Midland, MI) and immersed in paraffin oil (Ajax Chemicals, Sydney, Australia). Segments of individual fibers were mechanically skinned using jeweler’s forceps and pinned out unstretched under oil[37]–[39]. The skinned fiber was then mounted at 120% of resting length on a force transducer (Myotronic UG, Heidelberg, Germany) before transfer to a 2-ml Perspex bath containing standard K^+-based solution that broadly mimics the intracellular milieu. […] All chemicals were purchased from Sigma-Aldrich (St Louis, MO, USA) unless specified otherwise.
Variations of the standard solution were prepared. To deplete the caffeine releasable Ca^2+ (“full release solution”), 30 mM caffeine was added, [Mg^2+] was lowered to 0.05 mM (total Mg^2+ of 2.1 mM) and free EGTA was adjusted to 0.5 mM (pCa 8.5) to chelate released Ca^2+. To measure the maximum force produced by the skinned fiber, all HDTA was replaced by EGTA (relaxing solution) or CaEGTA (maximum Ca^2+ activating solution). The relaxing solution contained 50 mM EGTA and no added Ca^2+ (pCa > 9) and the maximum Ca^2+-activating solution contained 49.5 mM Ca^2+ (pCa 4.7), with total Mg^2+ of 10.3 and 8.1 mM, respectively, to maintain the free [Mg^2+] at 1 mM. A “leak solution” was also prepared, where [Mg^2+] set at 0.1 mM (total Mg^2+ of 3.4 mM) to increase the PO of RyR and with 2 mM EGTA (pCa ~8.5) to chelate leaky Ca^2+ from the SR. […] The BAPTA solution used to pre-equilibrate fibers before lysing was similar to the standard K-HDTA solution but EGTA was replaced with 0.1–1.6 mM BAPTA[37],[39].
The skinned fiber was then equilibrated for 20 s in a solution with a set [BAPTA] before being placed in a freshly triturated emulsion of Triton X-100 in paraffin oil (TX–oil) (10% v/v). The Ca^2+ released upon the membrane lysing rapidly binds to the known amount of BAPTA present within the fiber and to other sites, predominantly troponin C (TnC). The pre-equilibrating [BAPTA] was chosen such that the fiber produced a finite, non-maximal force response upon lysis. Pre-treatment of the fiber with “full release solution” allowed the non-SR Ca^2+ content of the skinned fiber to be assayed. The total amount of Ca^2+ present in the fiber could be calculated from the [BAPTA] in the equilibration solution and the magnitude of the force response. Data are presented as mean ± SD, with n denoting the number of fibers examined. Statistical significance (p < 0.05) was determined with One-way ANOVA.

TRPV1 = conditions: cited from earlier work
RyR1 [4] = system: RyR1; parameters: method as in PMID 21323602; conditions: cited from earlier work
RyR2 = system: RyR2; parameters: method as in PMID 21323602; conditions: cited from earlier work

T1 sequence (P11716 whole entry): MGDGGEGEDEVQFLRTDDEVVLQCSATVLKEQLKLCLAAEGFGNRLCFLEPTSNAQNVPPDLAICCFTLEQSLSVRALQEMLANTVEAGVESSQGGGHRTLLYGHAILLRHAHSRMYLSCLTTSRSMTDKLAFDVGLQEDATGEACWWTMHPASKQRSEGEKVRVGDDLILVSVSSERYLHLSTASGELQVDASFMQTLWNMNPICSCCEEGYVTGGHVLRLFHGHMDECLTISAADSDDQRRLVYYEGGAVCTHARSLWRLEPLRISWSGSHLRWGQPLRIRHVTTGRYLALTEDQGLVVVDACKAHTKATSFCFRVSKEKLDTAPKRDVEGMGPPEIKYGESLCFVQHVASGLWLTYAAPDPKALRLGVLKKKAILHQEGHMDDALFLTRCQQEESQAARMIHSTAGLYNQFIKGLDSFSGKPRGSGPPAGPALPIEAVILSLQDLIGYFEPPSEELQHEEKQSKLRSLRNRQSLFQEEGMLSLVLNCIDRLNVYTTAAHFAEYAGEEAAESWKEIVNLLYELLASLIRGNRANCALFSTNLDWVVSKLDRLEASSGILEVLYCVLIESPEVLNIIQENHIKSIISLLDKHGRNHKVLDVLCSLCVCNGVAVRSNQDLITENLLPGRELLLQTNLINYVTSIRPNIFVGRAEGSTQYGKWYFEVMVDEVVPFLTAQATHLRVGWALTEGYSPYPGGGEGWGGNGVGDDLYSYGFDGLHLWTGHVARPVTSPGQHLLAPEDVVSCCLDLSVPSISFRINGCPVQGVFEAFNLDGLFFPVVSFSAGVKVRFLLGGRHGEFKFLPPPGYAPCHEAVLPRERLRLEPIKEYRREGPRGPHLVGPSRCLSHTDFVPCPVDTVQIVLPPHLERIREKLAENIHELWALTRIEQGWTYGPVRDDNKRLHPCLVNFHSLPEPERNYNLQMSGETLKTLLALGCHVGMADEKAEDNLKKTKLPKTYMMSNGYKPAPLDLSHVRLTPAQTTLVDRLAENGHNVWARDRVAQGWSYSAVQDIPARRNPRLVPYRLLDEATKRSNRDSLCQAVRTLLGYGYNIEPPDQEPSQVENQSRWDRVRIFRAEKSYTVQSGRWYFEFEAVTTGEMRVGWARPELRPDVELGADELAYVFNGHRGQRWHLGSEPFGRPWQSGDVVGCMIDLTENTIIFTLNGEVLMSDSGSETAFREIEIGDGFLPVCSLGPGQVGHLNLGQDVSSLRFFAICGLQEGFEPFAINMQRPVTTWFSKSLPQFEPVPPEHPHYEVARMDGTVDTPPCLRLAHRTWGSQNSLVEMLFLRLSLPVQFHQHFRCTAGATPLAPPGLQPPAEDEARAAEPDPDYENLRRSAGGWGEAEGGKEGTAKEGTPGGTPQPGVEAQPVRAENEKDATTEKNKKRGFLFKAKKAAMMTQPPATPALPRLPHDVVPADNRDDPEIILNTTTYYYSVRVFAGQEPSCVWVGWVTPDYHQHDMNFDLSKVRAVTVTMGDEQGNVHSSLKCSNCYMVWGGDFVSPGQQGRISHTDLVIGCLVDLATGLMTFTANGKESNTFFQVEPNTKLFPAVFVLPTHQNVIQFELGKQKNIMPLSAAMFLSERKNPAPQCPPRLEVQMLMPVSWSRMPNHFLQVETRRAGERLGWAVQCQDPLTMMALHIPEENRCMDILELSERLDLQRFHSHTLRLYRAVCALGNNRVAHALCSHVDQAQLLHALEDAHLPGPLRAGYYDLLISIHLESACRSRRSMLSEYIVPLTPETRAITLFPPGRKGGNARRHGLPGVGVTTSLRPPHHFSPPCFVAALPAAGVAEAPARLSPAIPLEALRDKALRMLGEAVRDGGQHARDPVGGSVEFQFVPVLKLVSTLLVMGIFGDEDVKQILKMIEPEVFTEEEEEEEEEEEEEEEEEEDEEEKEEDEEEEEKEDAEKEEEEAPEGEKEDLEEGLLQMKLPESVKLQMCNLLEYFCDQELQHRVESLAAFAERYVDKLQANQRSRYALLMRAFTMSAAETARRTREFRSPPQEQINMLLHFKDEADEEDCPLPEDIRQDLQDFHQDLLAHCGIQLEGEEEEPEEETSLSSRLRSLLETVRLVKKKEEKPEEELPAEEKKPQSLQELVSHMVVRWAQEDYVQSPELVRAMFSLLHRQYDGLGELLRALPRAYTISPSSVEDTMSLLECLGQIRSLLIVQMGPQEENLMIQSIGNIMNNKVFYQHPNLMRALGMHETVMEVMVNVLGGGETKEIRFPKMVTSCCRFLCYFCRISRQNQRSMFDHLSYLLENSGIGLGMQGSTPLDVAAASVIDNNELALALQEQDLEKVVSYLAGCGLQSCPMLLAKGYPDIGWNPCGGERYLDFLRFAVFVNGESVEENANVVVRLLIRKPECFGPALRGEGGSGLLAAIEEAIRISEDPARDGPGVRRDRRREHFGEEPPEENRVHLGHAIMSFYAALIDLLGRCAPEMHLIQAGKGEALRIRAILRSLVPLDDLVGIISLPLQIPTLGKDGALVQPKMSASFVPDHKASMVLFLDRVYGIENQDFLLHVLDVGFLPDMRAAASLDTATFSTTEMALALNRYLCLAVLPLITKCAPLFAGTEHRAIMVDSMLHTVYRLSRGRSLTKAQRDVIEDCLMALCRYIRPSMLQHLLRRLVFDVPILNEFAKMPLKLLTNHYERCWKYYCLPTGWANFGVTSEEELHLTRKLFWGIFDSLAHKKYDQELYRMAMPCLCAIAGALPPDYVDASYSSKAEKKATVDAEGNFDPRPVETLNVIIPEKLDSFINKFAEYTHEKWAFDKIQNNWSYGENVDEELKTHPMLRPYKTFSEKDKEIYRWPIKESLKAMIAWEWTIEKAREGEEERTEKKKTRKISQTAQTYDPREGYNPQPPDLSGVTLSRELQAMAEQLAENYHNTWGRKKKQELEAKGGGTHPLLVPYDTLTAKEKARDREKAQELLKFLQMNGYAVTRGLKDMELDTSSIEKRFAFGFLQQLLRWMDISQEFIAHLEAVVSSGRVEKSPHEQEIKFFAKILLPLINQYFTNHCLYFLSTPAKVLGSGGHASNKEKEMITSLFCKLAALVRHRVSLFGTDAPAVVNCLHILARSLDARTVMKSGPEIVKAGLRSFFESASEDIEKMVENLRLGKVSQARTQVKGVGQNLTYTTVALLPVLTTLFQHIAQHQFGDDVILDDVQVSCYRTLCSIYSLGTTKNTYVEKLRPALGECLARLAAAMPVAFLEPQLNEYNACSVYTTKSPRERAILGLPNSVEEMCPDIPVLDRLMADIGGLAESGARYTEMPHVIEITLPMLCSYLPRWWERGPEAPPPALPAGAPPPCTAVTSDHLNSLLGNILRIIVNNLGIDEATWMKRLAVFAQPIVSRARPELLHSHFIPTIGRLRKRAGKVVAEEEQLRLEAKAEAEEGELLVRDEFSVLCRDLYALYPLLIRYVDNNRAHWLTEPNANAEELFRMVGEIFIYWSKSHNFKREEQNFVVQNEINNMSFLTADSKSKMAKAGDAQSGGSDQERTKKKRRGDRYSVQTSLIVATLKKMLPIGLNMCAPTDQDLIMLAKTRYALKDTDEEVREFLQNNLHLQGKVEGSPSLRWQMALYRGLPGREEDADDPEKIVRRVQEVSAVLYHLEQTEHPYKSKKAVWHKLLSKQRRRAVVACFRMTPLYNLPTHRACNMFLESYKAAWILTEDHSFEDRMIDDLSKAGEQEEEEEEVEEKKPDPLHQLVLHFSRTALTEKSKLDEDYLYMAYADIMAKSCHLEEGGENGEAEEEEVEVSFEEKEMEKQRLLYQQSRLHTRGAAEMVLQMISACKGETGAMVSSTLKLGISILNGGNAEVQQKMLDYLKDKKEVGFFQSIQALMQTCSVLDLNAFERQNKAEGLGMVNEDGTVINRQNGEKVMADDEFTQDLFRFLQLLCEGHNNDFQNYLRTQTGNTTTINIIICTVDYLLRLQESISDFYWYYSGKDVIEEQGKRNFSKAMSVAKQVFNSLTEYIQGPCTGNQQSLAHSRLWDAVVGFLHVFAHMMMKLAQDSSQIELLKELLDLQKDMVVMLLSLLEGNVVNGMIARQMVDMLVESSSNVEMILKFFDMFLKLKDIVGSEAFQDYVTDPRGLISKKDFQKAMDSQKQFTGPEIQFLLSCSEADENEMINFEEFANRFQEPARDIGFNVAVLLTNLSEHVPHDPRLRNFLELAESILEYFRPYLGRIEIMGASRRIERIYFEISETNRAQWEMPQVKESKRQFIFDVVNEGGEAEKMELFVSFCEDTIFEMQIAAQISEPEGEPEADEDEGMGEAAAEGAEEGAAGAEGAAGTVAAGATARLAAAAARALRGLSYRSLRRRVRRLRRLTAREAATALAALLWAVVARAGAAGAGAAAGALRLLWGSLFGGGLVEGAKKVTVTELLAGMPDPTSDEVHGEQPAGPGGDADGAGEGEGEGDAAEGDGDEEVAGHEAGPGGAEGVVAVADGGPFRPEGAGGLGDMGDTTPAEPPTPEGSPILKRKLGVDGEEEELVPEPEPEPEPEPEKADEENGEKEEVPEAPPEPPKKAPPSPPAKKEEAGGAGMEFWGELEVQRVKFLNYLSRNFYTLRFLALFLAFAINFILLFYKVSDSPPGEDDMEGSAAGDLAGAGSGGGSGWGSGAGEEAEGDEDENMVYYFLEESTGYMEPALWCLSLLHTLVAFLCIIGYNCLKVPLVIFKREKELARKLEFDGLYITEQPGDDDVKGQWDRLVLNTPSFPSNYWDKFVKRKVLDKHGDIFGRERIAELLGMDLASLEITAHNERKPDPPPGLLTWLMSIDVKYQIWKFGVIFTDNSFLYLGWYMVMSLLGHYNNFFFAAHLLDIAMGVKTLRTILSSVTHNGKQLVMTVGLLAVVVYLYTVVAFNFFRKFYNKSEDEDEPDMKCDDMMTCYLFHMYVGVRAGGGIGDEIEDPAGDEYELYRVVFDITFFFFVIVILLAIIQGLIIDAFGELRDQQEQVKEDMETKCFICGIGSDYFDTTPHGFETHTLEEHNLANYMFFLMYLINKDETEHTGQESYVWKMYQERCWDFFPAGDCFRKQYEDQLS
T2 sequence (P11716 whole entry, canonical isoform): as the sequence (P11716 whole entry) above

imperatoxin-A (GDCLPHLKRCKADNDCCGKKCKRRGTNAEKRCR; not fully specified; ends and bridges not checked; UniProt P59868 1-33, looked up) [IpTxA, member of the calcin family of scorpion derived ICK toxins, recombinant (SUMO fusion), reference compound]
activation of RyR1 (RyR1 [1]; 0.1 nM n=2, 1 nM n=3, 10 nM n=2 grouped (n=7, P=3.7E-02)): show activation withn a similar range
activation of RyR1 channels (RyR1 [1]; isolated domains and IpTxA): potent (pM to nM) activation of RyR1 channels
reversibility of activity (RyR1 [2]): reversible
mean rel Po (ryanodine receptor): 1.9
efficiency to increase SR Ca2+ leakage (order) ([3]; 10 nM): Xt3a > Xt3a-D1 ~ IpTxA > Xt3a-D2
depletion of [CaT]SR ([3]; 10 nM peptide in leak solution, 1 min leak, mean ± SD, control leak 18 ± 7%): 55 ± 18%
Relative amount of total Ca2+ left in the SR ([CaT]SR) ([3]; 10 nM peptide, 1 min leak, relative to Pre, fiber 2 of column): 17.9
Relative amount of total Ca2+ left in the SR ([CaT]SR) ([3]; 10 nM peptide, 1 min leak, relative to Pre, fiber 3 of column): 33.5
Relative amount of total Ca2+ left in the SR ([CaT]SR) ([3]; 10 nM peptide, 1 min leak, relative to Pre, fiber 4 of column): 46.4
Relative amount of total Ca2+ left in the SR ([CaT]SR) ([3]; 10 nM peptide, 1 min leak, relative to Pre, fiber 5 of column): 44.7
Relative amount of total Ca2+ left in the SR ([CaT]SR) ([3]; 10 nM peptide, 1 min leak, relative to Pre, fiber 6 of column): 44.3
Relative amount of total Ca2+ left in the SR ([CaT]SR) ([3]; 10 nM peptide, 1 min leak, relative to Pre, fiber 7 of column): 51.6
Relative amount of total Ca2+ left in the SR ([CaT]SR) ([3]; 10 nM peptide, 1 min leak, relative to Pre, fiber 8 of column): 48.5
Relative amount of total Ca2+ left in the SR ([CaT]SR) ([3]; 10 nM peptide, 1 min leak, relative to Pre, fiber 9 of column): 70.6
Relative amount of total Ca2+ left in the SR ([CaT]SR) ([3]; 10 nM peptide, 1 min leak, relative to Pre, fiber 10 of column): 71.5
Relative amount of total Ca2+ left in the SR ([CaT]SR), mean ([3]; 10 nM peptide, 1 min leak, relative to Pre, mean (n = 13 Xt3a, n = 10 others)): 44.8
Relative amount of total Ca2+ left in the SR ([CaT]SR) ([3]; 10 nM peptide, 1 min leak, relative to [CaT]SR before the leak (Pre), fiber 1 of column): 19.4

B1: DkTx: double-knot spider toxin with tandem repeat ICK structure, TRPV1 (peptide, UniProt P0CH43 1-79, looked up)
Tau-theraphotoxin-Hs1a: DCAKEGEVCSWGKKCCDLDNFYCPMEFIPHCKKYKPYVPVTTNCAKEGEVCGWGSKCCHGLDCPLAFIPYCEKYRGRND
avidity on washout (TRPV1): high avidity, evidenced by persistent activity during washout

B2: GSTm2: glutathione transferase reported to modulate RyR1 and RyR2 (protein, UniProt P28161 1-218, looked up)
Glutathione S-transferase Mu 2: MPMTLGYWNIRGLAHSIRLLLEYTDSSYEEKKYTMGDAPDYDRSQWLNEKFKLGLDFPNLPYLIDGTHKITQSNAILRYIARKHNLCGESEKEQIREDILENQFMDSRMQLAKLCYDPDFEKLKPEYLQALPEMLKLYSQFLGKQPWFLGDKITFVDFIAYDVLERNQVFEPSCLDAFPNLKDFISRFEGLEKISAYMKSSRFLPRPVFTKMAVWGNK
effect on RyR1 activity (RyR1 [4]): slightly increases the activity of RyR1
effect on RyR2 activity (RyR2): strongly inhibits RyR2
